Series [1] concerns NEP enzyme extracted from porcine kidney. In words: Degradation of Met-enkephalin incubated with NEP alone (without inhibitor). Format: in vitro ADME. The settings on record: printed value is 1000 × k, Met-enkephalin 0.0413 mM, NEP 5.687 nM, Tris–HCl 50 mM pH 7.4, 37 °C, 0–120 min, RP-HPLC, mean ± SEM, triplicate. Here is the method:
(§1) The degradation studies were performed using the NEP enzyme extracted from porcine kidney, acquired from Merck (Warsaw, Poland). Solutions of Met-enkephalin, NEP and inhibitors were prepared by dissolving them in a Tris–HCl buffer (50 mM, pH 7.4). In investigated samples, the concentrations of Met-enkephalin, inhibitors and NEP were, respectively, 0.0413 mM, 0.156 mM and 5.687 nM. The reaction was initiated by addition of enzyme to a solution-containing Met-enkephalin and inhibitor. The samples consisting of the enzyme, Met-enkephalin and inhibitors were incubated over 0, 30, 60, 90, 120 min at 37 °C in a final volume of 300 μL. The reaction was stopped at a predetermined time by placing the tube on ice and acidifying with 30 μL of a 1 M aqueous HCl solution. The aliquots were centrifuged at 14,500 rpm for 20 min. The supernatants were filtered through Millipore Millex-GV syringe filters with 0.22 μm pores (Merck, Warsaw, Poland) and analysed by RP-HPLC on a Phenomenex Gemini-NX C18 column (5 μm, 4.6 mm × 150 mm) using a linear gradient of 3–50% of [B] for 8 min at a flow rate of 2.5 ml/min. Two solvent systems were used: 0.1% TFA in water [A] and 0.1% TFA in acetonitrile [B]. The rate constants of degradation (k) and degradation half-lives (t1/2) were calculated as described elsewhere (Kamysz et al. [2016]; Perlikowska et al. [2012]). All measurements were performed in triplicate. […]

The subject of series [2] is NEP. The series is described as above. Format: in vitro ADME, porcine. The note with it: pig, NEP enzyme extracted from porcine kidney, Met-enkephalin 0.0413 mM, NEP 5.687 nM, Tris–HCl 50 mM pH 7.4, 37 °C, 0–120 min, RP-HPLC, mean ± SEM, triplicate, read-out: t1/2, half-life of Met-enkephalin incubated with NEP alone. Here is the method:
as §1

In the case of `CSCC[C@H](NC(=O)[C@H](Cc1ccccc1)NC(=O)CNC(=O)CNC(=O)[C@@H](N)Cc1ccc(O)cc1)C(=O)O` [Met-enkephalin, Met-enkephalin (Tyr–Gly–Gly–Phe–Met)], the “1000 × k, degradation rate of Met-enkephalin incubated with NEP alone” value in series [1] was 25.3 ± 1.0 min⁻¹. Moreover, the half-life in series [2] was 27 ± 1 min.

Values taken from paper PMC6060874, “Alanine scan of sialorphin and its hybrids with opiorphin: synthesis, molecular modelling and effect on enkephalins degradation” (Amino Acids, 2018).
